Columns and labels:
[1] = Swelling test, Louisiana gumbo shale; settings: gumbo shale pellets
From the text: The swelling inhibition effects of drilling fluids of this invention on water-sensitive shales have been evaluated by performing swelling tests using a Computer-Aided Swellmeter developed by M-I Drilling Fluids L.L.C. This device is described in, Lee, John, "Swellmeter Analysis," M-I® TECH-NEWS, November 1989. Pellets with 1 inch diameter, prepared by compressing pulverized water-sensitive shales under controlled loads, are placed in specially designed holders and allowed to be in direct contact with test fluids. The pellets are allowed to adsorb test fluids and swell for a period of time ranging from about 60 to 120 hours in the test fluids. Volume expansions of the pellets are recorded by using liner variable differential transformers. The volume expansions of the pellets and slopes of the swelling curves at the end of the test are used to evaluate the water adsorption and swelling inhibition of the test fluids.
The swelling tests were performed according to the test procedures given above. The argillaceous rock used for the tests was a "gumbo shale" obtained from offshore Louisiana. The gumbo shale was pulverized and pressed into 1 inch diameter pellets under 10,000 pounds of force for 5 minutes. The volume expansions of the pellets and the swelling rates calculated from swelling data obtained between 55 and 60 hours of the test are shown in Table 2. […]

[2] = cited from earlier work; for single-dose oral LD50: from Patty's Industrial Hygiene and Toxicology, 1978; for toxicity ranking / hazard in words: based on laboratory test data, direct ingestion
[3] = U.S. Pat. No. 4,830,765, cited from earlier work; for swelling of bentonite: 100% glycol fluid; for concentration needed to provide appreciable swelling inhibition on bentonite: in a fluid phase

| Molecule | single-dose oral LD50 [2] | toxicity ranking / hazard in words [2] | concentration needed to provide appreciable swelling inhibition on bentonite [3] [% by weight] | other results |
| --- | --- | --- | --- | --- |
| C[N+](C)(C)CCO.[Cl-] [Choline Chloride, choline chloride] |  |  |  | swelling inhibition in words [1]: more effective than the inorganic cationic material |
| OCCOCCO [Diethylene Glycol] | 16-21 gm/KG |  |  |  |
| OCCO [Ethylene Glycol] | 6-12 gm/KG | most toxic |  |  |
| CC(O)CO (stereo not drawn) [Propylene Glycol] | 21-34 gm/KG | least toxic | ≥ 50 | swelling of bentonite [3]: completely prevented |
| OCCOCCOCCO [Triethylene Glycol] | 16-22 gm/KG |  |  |  |
| CC(O)COC(C)COC(C)CO (stereo not drawn) [Tripropylene Glycol] |  |  |  | swelling of bentonite [3]: completely prevented |
| OCC(O)CO [glycerin] |  |  | ≥ 50 |  |
| OC[C@@H](O)[C@@H](O)[C@H](O)[C@@H](O)CO [sorbitol] |  |  | ≥ 50 |  |
| Butylene Glycol | 23-30 gm/KG | least toxic |  |  |
| Dipropylene Glycol | ~ 15 gm/KG |  |  |  |

From US5635458A, “Water-based drilling fluids for reduction of water adsorption and hydration of argillaceous rocks” (M-I Drilling Fluids, L.L.C., priority 1995, dated 1997)
